Activity calls are given as the source filed them. The calls are words filed in the database; no cut-off is given here.
Legend:
A498 [1] = assay: Anticancer activity against human A498 cells assessed as reduction of cell viability at 70 nM relative to control; format: functional
CCRF-CEM [2] = assay: Antitumour activity against human CCRF-CEM xenografted in mouse assessed as reduction of tumour volume, IT measured after 1 week; format: functional; settings: time 1.0 weeks
[3] = Anticancer activity against human 6780 cell cells assessed as reduction of cell viability at 280 nM relative to control; format: functional
Mus musculus [4] = assay: Antitubulin activity against human CCRF-CEM cells xenografted in IT dosed mouse assessed as decrease in tubulin level treated for 1 week by nano-immuno assay; format: functional, organism-based; settings: time 1.0 weeks
CCRF-CEM [5] = assay: Anticancer activity against human CCRF-CEM cells assessed as reduction of cell viability at 280 nM relative to control; format: functional
A498 [6] = assay: Antitumour activity against human A498 cells xenografted in mouse assessed as reduction of tumour weight, IT measured after 1 week; format: functional, cell-based; settings: time 1.0 weeks
[7] = Anticancer activity against human P493-6 cells assessed as reduction of cell viability at 70 nM relative to control; format: functional
Mus musculus [8] = assay: Antitubulin activity against human CCRF-CEM cells xenografted in IT dosed mouse assessed as fold decrease in tubulin fine needle aspirates treated for 1 week by nano-immuno assay relative to control; format: functional; settings: time 1 weeks
[9] = Anticancer activity against transgenic mouse RCC E28 cells assessed as reduction of cell proliferation at 140 nM for 48 hrs relative to 70 uM treatment; format: functional
[10] = Anticancer activity against human 6780 cell cells assessed as reduction of cell viability at 70 nM relative to control; format: functional
[11] = Anticancer activity against human P493-6 cells assessed as reduction of cell viability at 280 nM relative to control; format: functional
KOPTK1 [12] = assay: Anticancer activity against human KOPT-K1 cells assessed as reduction of cell viability at 70 nM relative to control; format: functional
[13] = Anticancer activity against transgenic mouse RCC E28 cells assessed as reduction of cell proliferation at 70 nM for 48 hrs relative to control; format: functional; set-up: scale not given: the % may be the effect or the level left
[14] = Anticancer activity against human P493-6 cells assessed as reduction of cell viability at 140 nM relative to control; format: functional
KOPTK1 [15] = assay: Anticancer activity against human KOPT-K1 cells assessed as reduction of cell viability at 140 nM relative to control; format: functional
CCRF-CEM [16] = assay: Inhibition of lipid metabolism in human CCRF-CEM cells assessed as increase in mono glycerol level measured after 1 week treatment by DESI-MSI; format: functional, cell-based; settings: time 1.0 weeks
KOPTK1 [17] = assay: Anticancer activity against human KOPT-K1 cells assessed as reduction of cell viability at 280 nM relative to control; format: functional
CCRF-CEM [18] = assay: Anticancer activity against human CCRF-CEM cells assessed as reduction of cell viability at 70 nM relative to control; format: functional
[19] = Anticancer activity against human 6780 cell cells assessed as reduction of cell viability at 140 nM relative to control; format: functional
CCRF-CEM [20] = assay: Anticancer activity against human CCRF-CEM cells assessed as reduction of cell viability at 140 nM relative to control; format: functional
[21] = Anticancer activity against human DND41 cells assessed as reduction of cell viability at 70 nM relative to control; format: functional
Tubulin (Homo sapiens) = Tubulin (Homo sapiens) (UniProt P68371+Q9H4B7+P0DPH7+P68366+Q13509+Q71U36+P04350+Q3ZCM7+P07437+P68363+Q9BQE3+Q6PEY2+Q13885+Q9BVA1+Q9BUF5); assay: Inhibition of tubulin polymerization (unknown origin); format: protein-complex assay

O=C1OCC2=C1C(c1ccccc1)c1cc3c(cc1N2CCO)OCO3 (stereo not drawn)
Activity (A498 [1]): 30%

COc1cc(C2C3=C(COC3=O)N(CCO)c3cc4c(cc32)CCC4)cc(OC)c1OC (stereo not drawn)
Activity (CCRF-CEM [2]): Active | Activity [3]: 96% | Activity (Mus musculus [4]): Active | Activity (CCRF-CEM [5]): 96% | Activity (A498 [6]): Active | Activity [7]: 85% | fold change (FC) (Mus musculus [8]): 2 | fold change (FC) [9]: 2 | Activity [10]: 90% | Activity [11]: 98% | Activity (A498 [1]): 95% | Activity (KOPTK1 [12]): 85% | Activity [13]: 90% | Activity [14]: 90% | Activity (KOPTK1 [15]): 87% | inhibition (CCRF-CEM [16]): Active | Activity (KOPTK1 [17]): 89% | Activity (CCRF-CEM [18]): 90% | Activity [19]: 94% | Activity (CCRF-CEM [20]): 92% | Activity [21]: 95% | inhibition (Tubulin (Homo sapiens)): Active

O=C1OCC2=C1C(c1ccccc1)c1cc3c(cc1N2CCO)OCCO3 (stereo not drawn)
Activity (A498 [1]): 30%

O=C1OCC2=C1C(c1cccc(Br)c1)c1cc3c(cc1N2CCO)CCC3 (stereo not drawn)
Activity (A498 [1]): 90%

O=C1OCC2=C1C(c1cccc(C(F)(F)F)c1)c1cc3c(cc1N2CCO)OCCO3 (stereo not drawn)
Activity (A498 [1]): 80%

O=C1OCC2=C1C(c1cccc(C(F)(F)F)c1)c1cc3c(cc1N2CCO)CCC3 (stereo not drawn)
Activity (A498 [1]): 83%

O=C1OCC2=C1C(c1cccc(Br)c1)c1cc3c(cc1N2CCO)OCCO3 (stereo not drawn)
Activity (A498 [1]): 87%

Source: ChEMBL document CHEMBL5036383, “Azapodophyllotoxin Causes Lymphoma and Kidney Cancer Regression by Disrupting Tubulin and Monoglycerols” (2022)
